Laboratory results reported in PubChem BioAssay (NCI).
Values joined by “and” are separate entries in the source; they are usually repeats but may differ in a detail not shown here. Identical values can stand only once.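 Values below derive from 48-hour exposures of cells grown in 96-well plates, with endpoints linearly interpolated between the two concentrations bracketing the appropriate inhibition level. Abbreviation: GI50, concentration required for 50% inhibition of growth. TGI: total growth inhibition.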

Key:
Assay in all cases: NCI anticancer screen, dose series, 48 h
[1] = test system: ACHN renal
[2] = test system: CAKI-1 renal
[3] = test system: EKVX NSCLC
[4] = test system: HCT-15 colon
[5] = test system: HOP-92 NSCLC
[6] = test system: MALME-3M melanoma
[7] = test system: MCF7 breast
[8] = test system: NCI/ADR-RES ovarian
[9] = test system: OVCAR-4 ovarian
[10] = test system: UO-31 renal

O=C(CN1CCN(CCCOc2c(-c3ccccc3)oc3ccccc3c2=O)CC1)Nc1ccc(Cl)cc1C(=O)c1ccccc1Cl
GI50 [1]: 14.8 µM
TGI [1]: > 100 µM
GI50 [2]: 12.9 µM
TGI [2]: 36.9 µM
GI50 [3]: 22.7 µM
TGI [3]: > 100 µM
GI50 [4]: 5480 nM
TGI [4]: 53.8 µM
GI50 [5]: 1050 nM
TGI [5]: 6.6 µM
GI50 [6]: 4 µM
TGI [6]: 8.91 µM
GI50 [7]: 3.5 µM
TGI [7]: 26.5 µM
GI50 [8]: 5.74 µM
TGI [8]: 26.4 µM
GI50 [9]: 7.48 µM
TGI [9]: 54.8 µM
GI50 [10]: 9.28 µM
TGI [10]: 29.4 µM

Nc1ncnc2c1nc(Cl)n2C1OC2COP(=O)(O)OC2C1O (stereo not given)
TGI [1]: > 300 µM
TGI [2]: 153 µM and > 100 µM
TGI [3]: > 300 µM
TGI [4]: > 300 µM
TGI [5]: 229 µM and > 92.9 µM
TGI [6]: > 300 µM
TGI [7]: > 300 µM
TGI [8]: > 300 µM
TGI [9]: 204 µM and > 100 µM
TGI [10]: > 300 µM

O=C(Nc1cccc(Cl)c1)c1ccc(NC2=C(Cl)C(=O)N(Cc3ccccc3)C2=O)cc1
GI50 [1]: 17.6 µM
TGI [1]: > 53.4 µM
GI50 [2]: 14.7 µM
TGI [2]: 50.8 µM
GI50 [3]: > 46 µM
TGI [3]: > 69.3 µM
GI50 [4]: 1980 nM
TGI [4]: 4.76 µM
GI50 [5]: 9090 nM
TGI [5]: 29.5 µM
GI50 [6]: 24 µM
TGI [6]: 78.5 µM
GI50 [7]: 3.19 µM
TGI [7]: 12.2 µM
GI50 [8]: 9.53 µM
TGI [8]: 24.9 µM
GI50 [9]: 19.4 µM
TGI [9]: > 61.7 µM
GI50 [10]: > 26.3 µM
TGI [10]: > 100 µM

CCOC(=O)N1CCc2cc(OC)c(OC)c3c2c1cc1cc(OC)c(OC)cc13
TGI [1]: > 95 µM
TGI [2]: 84.2 µM
TGI [3]: > 100 µM
TGI [4]: 37.9 µM
TGI [5]: 44.8 µM
TGI [6]: 51.5 µM
TGI [7]: 32.8 µM
TGI [8]: 5.37 µM
TGI [9]: > 95.3 µM
TGI [10]: > 100 µM

CC[C@H](Nc1nc(NCc2cnc(C)cc2C)c2ncn(C(C)C)c2n1)[C@@H](C)O
GI50 [1]: 0.327 µM
TGI [1]: > 100 µM
GI50 [2]: 0.269 µM
TGI [2]: > 100 µM
GI50 [3]: 0.319 µM
TGI [3]: 2.02 µM
GI50 [4]: 349 nM
TGI [4]: 4.89 µM
GI50 [5]: 279 nM
TGI [5]: 2.27 µM
GI50 [6]: 1.18 µM
TGI [6]: 4.22 µM
GI50 [7]: 0.284 µM
TGI [7]: 7.23 µM
GI50 [8]: 1.97 µM
TGI [8]: > 31 µM
GI50 [9]: 0.631 µM
TGI [9]: 11.5 µM
GI50 [10]: 0.272 µM
TGI [10]: > 100 µM

CCCc1cc2c(=O)c(C(=O)OC)c[nH]c2cc1N(CC)CC
GI50 [1]: 17.6 µM
TGI [1]: 60.9 µM
GI50 [2]: 11.7 µM
TGI [2]: 29.1 µM
GI50 [3]: 16.9 µM
TGI [3]: 42.7 µM
GI50 [4]: 76700 nM
TGI [4]: > 100 µM
GI50 [5]: 19200 nM
TGI [5]: 52.7 µM
GI50 [6]: 64.8 µM
TGI [6]: > 100 µM
GI50 [7]: 73.6 µM
TGI [7]: > 100 µM
GI50 [8]: 24.2 µM
TGI [8]: 72.8 µM
GI50 [9]: 22.4 µM
TGI [9]: 74.5 µM
GI50 [10]: 28.5 µM
TGI [10]: > 100 µM

Cn1c(/C=C(\C#N)c2ccccc2)nc2c(N3CCOCC3)nc(Cl)nc21
GI50 [1]: 0.458 µM
TGI [1]: 1.59 µM
GI50 [2]: 0.824 µM
TGI [2]: 2.21 µM
GI50 [3]: 1.42 µM
TGI [3]: 3.04 µM
GI50 [4]: 233 nM
TGI [4]: 0.641 µM
GI50 [5]: 405 nM
TGI [5]: 2.06 µM
GI50 [6]: 1.45 µM
TGI [6]: 2.86 µM
GI50 [7]: 0.48 µM
TGI [7]: 2.15 µM
GI50 [8]: 1.98 µM
TGI [8]: 7.23 µM
GI50 [9]: 1.13 µM
TGI [9]: 2.5 µM
GI50 [10]: 0.553 µM
TGI [10]: 1.88 µM

COC1CC2CCC(C)C(O)(O2)C(=O)C(=O)N2CCCCC2C(=O)OC(C(C)CC2CCC(O)C(OC)C2)CC(=O)C(C)C=C(C)C(O)C(OC)C(=O)C(C)CC(C)/C=C/C=C/C=C1C (stereo not given)
GI50 [1]: 2.55 µM
TGI [1]: 21.1 µM
GI50 [2]: 2.58 µM
TGI [2]: 47.8 µM
GI50 [3]: < 0.005 µM
TGI [3]: 13.7 µM
GI50 [4]: 81.3 nM
TGI [4]: 14.7 µM
GI50 [5]: 10.7 nM
TGI [5]: 7.48 µM
GI50 [6]: < 0.005 µM
TGI [6]: 8.36 µM
GI50 [7]: < 0.005 µM
TGI [7]: 14.6 µM
GI50 [8]: 1.86 µM
TGI [8]: 30.3 µM
GI50 [9]: < 0.005 µM
TGI [9]: 10.5 µM
GI50 [10]: < 0.005 µM
TGI [10]: 8.08 µM

C=CC(=O)N1CCN(c2nc(=O)n(-c3c(C)ccnc3C(C)C)c3nc(-c4c(O)cccc4F)c(F)cc23)[C@@H](C)C1
GI50 [1]: 40.9 µM
TGI [1]: > 100 µM
GI50 [2]: 40.3 µM
TGI [2]: > 100 µM
GI50 [3]: 48.6 µM
TGI [3]: > 100 µM
GI50 [4]: 29500 nM
TGI [4]: > 74.3 µM
GI50 [5]: 29800 nM
TGI [5]: > 58.8 µM
GI50 [6]: 20.8 µM
TGI [6]: 64 µM
GI50 [7]: 34.1 µM
TGI [7]: > 100 µM
GI50 [8]: > 100 µM
TGI [8]: > 100 µM
GI50 [9]: 35.8 µM
TGI [9]: > 100 µM
GI50 [10]: > 62.3 µM
TGI [10]: > 100 µM

O=C(CNc1ccc2c(c1)C(=O)c1ccccc1C2=O)Nc1ccc2c(c1)C(=O)c1ccccc1C2=O
GI50 [1]: 1.58 µM
TGI [1]: 3.01 µM
GI50 [2]: 1.5 µM
TGI [2]: 3.03 µM
GI50 [3]: 1.88 µM
TGI [3]: 4.02 µM
GI50 [4]: 312 nM
TGI [4]: 0.972 µM
GI50 [5]: 1390 nM
TGI [5]: 2.98 µM
GI50 [6]: 0.739 µM
TGI [6]: 2.36 µM
GI50 [7]: 0.809 µM
TGI [7]: 2.6 µM
GI50 [8]: 0.819 µM
TGI [8]: 4.68 µM
GI50 [9]: 1.5 µM
TGI [9]: 4.05 µM
GI50 [10]: 1.67 µM
TGI [10]: 3.1 µM

COC(=O)C1=C(C(=O)ON)C2C=CC1(C(Cc1ccccc1)Nc1ccccc1)O2 (stereo not given)
GI50 [1]: 1.63 µM
TGI [1]: 2.99 µM
GI50 [2]: 1.63 µM
TGI [2]: 3.03 µM
GI50 [3]: 1.75 µM
TGI [3]: 3.51 µM
GI50 [4]: 1730 nM
TGI [4]: 3.5 µM
GI50 [5]: 1510 nM
TGI [5]: 2.91 µM
GI50 [6]: 1.76 µM
TGI [6]: 3.33 µM
GI50 [7]: 2.42 µM
TGI [7]: 6.59 µM
GI50 [8]: 14.7 µM
TGI [8]: 36.2 µM
GI50 [9]: 1.66 µM
TGI [9]: 3.12 µM
GI50 [10]: 1.47 µM
TGI [10]: 2.8 µM

CC(C)(O)CS(=O)(=O)Nc1ccc2c(c1)CCN(C(=O)COc1cccnc1)C2
GI50 [1]: > 100 µM
TGI [1]: > 100 µM
GI50 [2]: > 92.4 µM
TGI [2]: > 100 µM
GI50 [3]: > 100 µM
TGI [3]: > 100 µM
GI50 [4]: 476 nM
TGI [4]: > 100 µM
GI50 [5]: 97500 nM
TGI [5]: > 100 µM
GI50 [6]: > 100 µM
TGI [6]: > 100 µM
GI50 [7]: 5.1 µM
TGI [7]: > 100 µM
GI50 [8]: 1.47 µM
TGI [8]: > 100 µM
GI50 [9]: > 100 µM
TGI [9]: > 100 µM
GI50 [10]: > 100 µM
TGI [10]: > 100 µM

C=C(CN1C(=O)[C@H]2CCCN2C(=O)c2ccccc21)c1ccc(C(=O)O)cc1
GI50 [1]: > 100 µM
TGI [1]: > 100 µM
GI50 [2]: > 100 µM
TGI [2]: > 100 µM
GI50 [3]: > 100 µM
TGI [3]: > 100 µM
GI50 [4]: > 100000 nM
TGI [4]: > 100 µM
GI50 [5]: > 100000 nM
TGI [5]: > 100 µM
GI50 [6]: > 100 µM
TGI [6]: > 100 µM
GI50 [7]: > 100 µM
TGI [7]: > 100 µM
GI50 [8]: > 100 µM
TGI [8]: > 100 µM
GI50 [9]: > 100 µM
TGI [9]: > 100 µM
GI50 [10]: > 100 µM
TGI [10]: > 100 µM

O=c1ccn(C2OC(CO/N=C/c3ccc(O)c(O)c3O)C(O)C2O)c(=O)[nH]1 (stereo not given)
GI50 [1]: 31.8 µM
TGI [1]: > 100 µM
GI50 [2]: 49.7 µM
TGI [2]: > 100 µM
GI50 [3]: 33.9 µM
TGI [3]: > 100 µM
GI50 [4]: 20500 nM
TGI [4]: 50.4 µM
GI50 [5]: > 100000 nM
TGI [5]: > 100 µM
GI50 [6]: 10.1 µM
TGI [6]: > 100 µM
GI50 [7]: 18.8 µM
TGI [7]: 37.6 µM
GI50 [8]: 20.5 µM
TGI [8]: 49 µM
GI50 [9]: 18.9 µM
TGI [9]: 37.8 µM
GI50 [10]: 17.2 µM
TGI [10]: 31.6 µM
